Test results published in patent US20220170052A1, “USE OF BACTERIOCIN-PRODUCING ETHANOLOGENS IN BIOFUEL PRODUCTION” (Wisconsin Alumni Research Foundation, priority 2016, published 2022).
Where no end group is shown, it is not given here.

What was measured:
[1] = tested on: wild lactic acid bacteria isolated from ethanol plants; assay: Sensitivity of 15 wild lactic acid bacteria isolated from ethanol plants to inhibitors in corn steep liquor broth (CSL); format: cell-based; details: share of 15 wild LAB isolates, 33° C.
Text: Pediocin and brochocin are known to inhibit a particular range of LAB, and serve as exemplary model bacteriocins. Other bacteriocins with equal or even broader inhibition ranges may be, based on the present disclosure, synthesized and secreted in a similar manner. Table 8 compares the effectiveness of three different LAB bacteriocins against the three antibiotics most commonly utilized in the ethanol industry as well as another industry antimicrobial ingredient, hop acids. […] Fifteen strains representative of the organisms isolated from corn ethanol plants were utilized. […] The bacteriocins were utilized at either levels currently being produced (pediocin), at levels reported by others in the research literature (nisin) using commercially available preparations, or in an assay system that allows for analyzing relatively broad range of concentrations (brochocin inhibition assay by agar diffusion).

[2] = tested on: ethanol plant isolates (LAB); assay: Growth (O.D.600) of ethanol plant isolates in corn mash extract with added pediocin; format: cell-based, lactic acid bacteria; details: Pediocin (Sigma) 500 ng/ml in corn mash extract, 37° C.
Text: Screening LAB isolated from ethanol plants for susceptibility to pediocin or brochocin. A variety of microorganisms are known to contaminate bioethanol fermentations, however LAB, particularly lactobacilli, are of primary concern (Beckner et al., 2011). The inventors' laboratory has isolated sixty-two LAB from four ethanol plants in the Midwest region of the United States. This ethanol plant culture collection contains isolates of Lb. fermentum, Lb. plantarum, Lb. brevis, Lb. mucosae, Lb. helveticus, Lb. heilongjiangensis, Lb. amylovorous, Lb. casei, Enterococcus sp. and Pediococcus pentosaceus strains that were gathered from all stages of the ethanol fermentation process. Thirty of these cultures were propagated from frozen by sequential transfers through MRS broth and corn mash extract, a filtrate obtained from corn mash from a bioethanol plant. Pediocin (Sigma) was added at 500 ng/ml to corn mash extract, inoculated with one of the ethanol plant isolates, incubated at 37° C. and growth was monitored by following O.D.600.

What does the source list for Virginiamycin?
Resistant ([1]; Virginiamycin 3 μg/mL): 13%; Sensitive ([1]; Virginiamycin 3 μg/mL): 87%

Which Resistant ([1]; Pediocin 500 IU/mL) does the source give for “pediocin (KYYGNGVTCGKHSCSVDWGKATTCIINNGAMAWATGGHQGNHKC; ends and bridges not checked; cysteine pairing not given here; UniProt P29430 19-62, looked up) [Class IIa bacteriocin; commercial preparation (Sigma), used at the concentration produced by Lb. casei E3 (pNZPed+)]” here?
The Resistant was 67%.

And the Sensitive ([1]; Pediocin 500 IU/mL)?
Its Sensitive is 33%.

What about the “ethanol plant isolates whose growth was inhibited” value [2] of the same compound?
The value was “five of the thirty”.

What does the source list for CC[C@H]1OC(=O)[C@H](C)[C@@H](O[C@H]2C[C@@](C)(OC)[C@@H](O)[C@H](C)O2)[C@H](C)[C@@H](O[C@@H]2O[C@H](C)C[C@H](N(C)C)[C@H]2O)[C@](C)(O)C[C@@H](C)C(=O)[C@H](C)[C@@H](O)[C@]1(C)O [Erythromycin]?
Resistant ([1]; Erythromycin 1 μg/mL): 7%; Sensitive ([1]; Erythromycin 1 μg/mL): 93%

For nisin, which Resistant ([1]; Nisin 500 ng/mL) is on record?
Its Resistant is 13%.

What about the Sensitive ([1]; Nisin 500 ng/mL) of the same compound?
Its Sensitive is 87%.

With Penicillin as the compound, how does the Resistant ([1]; Penicillin 6 μg/mL) read?
Its Resistant is 33%.

What about the Sensitive ([1]; Penicillin 6 μg/mL) of the same compound?
Its Sensitive is 77%.
